Reference: patent publication US9346815B2, “5-chloro-2-difluoromethoxyphenyl pyrazolopyrimidine compounds, compositions and methods of use thereof” (Genentech, Inc., priority 2014, dated 2016)
pEC50, pKi: −log10 of the molar value. Where a name gives a salt, the structure may show the parent alone.

Assays:
[1] = molecular target: isolated recombinant JAK1 kinase domain (Homo sapiens (Human), UniProt P23458); experiment: JAK1 enzyme assay (Caliper LabChip, peptide phosphorylation); type: biochemical; conditions: isolated recombinant JAK1 kinase domain, 25 μM ATP
[2] = molecular target: isolated recombinant JAK2 kinase domain (Homo sapiens (Human), UniProt O60674); experiment: JAK2 enzyme assay (Caliper LabChip, peptide phosphorylation); type: biochemical; conditions: 25 μM ATP
[3] = tested on: JAK1-dependent STAT6 phosphorylation downstream of IL-13 stimulation in TF-1 human erythroleukemia cells; experiment: JAK1 pathway assay in TF-1 cells (IL-13-pSTAT6, MSD); type: cell-based; conditions: Homo sapiens, TF-1, TF-1 cells, read-out: IL13-pSTAT6 EC50_TF-1
Method in brief: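 TF-1 cells are starved of GM-CSF overnight and run in serum-free medium, while BEAS-2B cells stay in complete growth medium. Inhibition of STAT6 phosphorylation is measured by MSD.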

isolated recombinant JAK1 kinase domain, sequence (P23458 875-1153): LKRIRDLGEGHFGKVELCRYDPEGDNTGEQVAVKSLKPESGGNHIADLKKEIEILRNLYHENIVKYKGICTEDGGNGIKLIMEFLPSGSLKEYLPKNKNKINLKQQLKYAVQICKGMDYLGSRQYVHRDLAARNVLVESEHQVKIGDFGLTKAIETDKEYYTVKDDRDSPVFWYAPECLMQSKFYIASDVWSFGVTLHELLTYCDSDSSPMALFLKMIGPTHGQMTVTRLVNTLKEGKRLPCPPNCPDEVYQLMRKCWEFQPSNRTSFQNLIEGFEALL
isolated recombinant JAK2 kinase domain, sequence (O60674 849-1124): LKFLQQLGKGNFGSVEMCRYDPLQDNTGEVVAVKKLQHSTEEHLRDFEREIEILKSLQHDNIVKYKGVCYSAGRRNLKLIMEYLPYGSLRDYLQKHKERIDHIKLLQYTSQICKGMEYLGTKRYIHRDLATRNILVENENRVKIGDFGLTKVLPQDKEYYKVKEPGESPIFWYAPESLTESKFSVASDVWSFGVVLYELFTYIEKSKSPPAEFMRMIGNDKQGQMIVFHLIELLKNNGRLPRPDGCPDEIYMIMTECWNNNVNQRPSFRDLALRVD

SMILES | pKi [1] | pKi [2] | pEC50 [3]
CC(=O)NCCCN1CCC(n2cc(NC(=O)c3cnn4cccnc34)c(-c3cc(Cl)ccc3OC(F)F)n2)CC1 [Example 142, Pyrazolo[1,5-a]pyrimidine-3-carboxylic acid [1-[1-(3-acetylaminopropyl)piperidin-4-yl]-3-(5-chloro-2-difluoromethoxyphenyl)-1H-pyrazol-4-yl]amide hydrochloride] | 8.78 | 9.42 | 7.44
CN(CCCN1CCC(n2cc(NC(=O)c3c(N)nn4cccnc34)c(-c3cc(Cl)ccc3OC(F)F)n2)CC1)C(=O)c1ccccc1 [Example 151, 2-amino-N-[1-[1-[3-[benzoyl(methyl)amino]propyl]-4-piperidyl]-3-[5-chloro-2-(difluoromethoxy)phenyl]pyrazol-4-yl]pyrazolo[1,5-a]pyrimidine-3-carboxamide] | 8.70 | 9.38 | 7.03
O=C(CCCN1CCC(n2cc(NC(=O)c3cnn4cccnc34)c(-c3cc(Cl)ccc3OC(F)F)n2)CC1)NC1CCOCC1 [Example 152, N-[3-[5-chloro-2-(difluoromethoxy)phenyl]-1-[1-[4-oxo-4-(tetrahydropyran-4-ylamino)butyl]-4-piperidyl]pyrazol-4-yl]pyrazolo[1,5-a]pyrimidine-3-carboxamide] | 8.97 | 9.72 | 7.92
O=C(CCCN1CCC(n2cc(NC(=O)c3cnn4cccnc34)c(-c3cc(Cl)ccc3OC(F)F)n2)CC1)NC1COC1 [Example 153, N-[3-[5-chloro-2-(difluoromethoxy)phenyl]-1-[1-[4-(oxetan-3-ylamino)-4-oxo-butyl]-4-piperidyl]pyrazol-4-yl]pyrazolo[1,5-a]pyrimidine-3-carboxamide] | 8.81 | 9.57 | 7.44
CN1CCN(CCCN2CCC(n3cc(NC(=O)c4cnn5cccnc45)c(-c4cc(Cl)ccc4OC(F)F)n3)CC2)C1=O [Example 154, N-[3-[5-chloro-2-(difluoromethoxy)phenyl]-1-[1-[3-(3-methyl-2-oxo-imidazolidin-1-yl)propyl]-4-piperidyl]pyrazol-4-yl]pyrazolo[1,5-a]pyrimidine-3-carboxamide] | 8.85 | 9.64 | 8.57
O=C(Nc1cn(C2CCN(CCCN3CCCC3=O)CC2)nc1-c1cc(Cl)ccc1OC(F)F)c1cnn2cccnc12 [Example 155, N-[3-[5-chloro-2-(difluoromethoxy)phenyl]-1-[1-[3-(2-oxopyrrolidin-1-yl)propyl]-4-piperidyl]pyrazol-4-yl]pyrazolo[1,5-a]pyrimidine-3-carboxamide] | 8.81 | 9.62 | 8.29
CCNC(=O)CCCN1CCC(n2cc(NC(=O)c3cnn4cccnc34)c(-c3cc(Cl)ccc3OC(F)F)n2)CC1 [Example 156, N-[3-[5-chloro-2-(difluoromethoxy)phenyl]-1-[1-[4-(ethylamino)-4-oxo-butyl]-4-piperidyl]pyrazol-4-yl]pyrazolo[1,5-a]pyrimidine-3-carboxamide] | 8.82 | 9.72 | 7.50
CNC(=O)CN1CCC(n2cc(NC(=O)c3cnn4cccnc34)c(-c3cc(Cl)ccc3OC(F)F)n2)CC1 [Example 157, N-[3-[5-chloro-2-(difluoromethoxy)phenyl]-1-[1-[2-(methylamino)-2-oxo-ethyl]-4-piperidyl]pyrazol-4-yl]pyrazolo[1,5-a]pyrimidine-3-carboxamide] | 8.88 | 9.12 | 8.04
O=C(Nc1cn(C2CCN(CCCN3CCOCC3)CC2)nc1-c1cc(Cl)ccc1OC(F)F)c1cnn2cccnc12 [Example 158, N-[3-[5-chloro-2-(difluoromethoxy)phenyl]-1-[1-(3-morpholinopropyl)-4-piperidyl]pyrazol-4-yl]pyrazolo[1,5-a]pyrimidine-3-carboxamide] | 8.67 | 9.59 | 7.41
O=C(Nc1cn(C2CCN(CCCN3CCSCC3)CC2)nc1-c1cc(Cl)ccc1OC(F)F)c1cnn2cccnc12 [Example 159, N-[3-[5-chloro-2-(difluoromethoxy)phenyl]-1-[1-(3-thiomorpholinopropyl)-4-piperidyl]pyrazol-4-yl]pyrazolo[1,5-a]pyrimidine-3-carboxamide] | 8.63 | 9.62 | 7.24

The next molecules have a higher pKi [1] than those just listed; values first:

pKi [1] | pKi [2] | pEC50 [3] | SMILES
9.34 | 9.41 | 7.53 | CN(CCO)C1CCN(C(=O)Cn2cc(NC(=O)c3c(N)nn4cccnc34)c(-c3cc(Cl)ccc3OC(F)F)n2)CC1 [Example 140, 2-amino-N-[3-[5-chloro-2-(difluoromethoxy)phenyl]-1-[2-[4-[2-hydroxyethyl(methyl)amino]-1-piperidyl]-2-oxo-ethyl]pyrazol-4-yl]pyrazolo[1,5-a]pyrimidine-3-carboxamide]
9.17 | 9.23 | 7.82 | COCCN(C)C1CCN(C(=O)Cn2cc(NC(=O)c3c(N)nn4cccnc34)c(-c3cc(Cl)ccc3OC(F)F)n2)CC1 [Example 141, 2-amino-N-[3-[5-chloro-2-(difluoromethoxy)phenyl]-1-[2-[4-[2-methoxy-ethyl(methyl)amino]-1-piperidyl]-2-oxo-ethyl]pyrazol-4-yl]pyrazolo[1,5-a]pyrimidine-3-carboxamide]
9.12 | 9.74 | 7.69 | Nc1nn2cccnc2c1C(=O)Nc1cn(C2CCN(CCCC(=O)N3CCCCC3)CC2)nc1-c1cc(Cl)ccc1OC(F)F [Example 143, 2-amino-N-[3-[5-chloro-2-(difluoromethoxy)phenyl]-1-[1-[4-oxo-4-(1-piperidyl)butyl]-4-piperidyl]pyrazol-4-yl]pyrazolo[1,5-a]pyrimidine-3-carboxamide]
9.24 | 9.80 | 7.83 | Nc1nn2cccnc2c1C(=O)Nc1cn(C2CCN(CCCNC(=O)c3ccccc3)CC2)nc1-c1cc(Cl)ccc1OC(F)F [Example 145, 2-amino-N-[1-[1-(3-benzamidopropyl)-4-piperidyl]-3-[5-chloro-2-(difluoromethoxy)phenyl]pyrazol-4-yl]pyrazolo[1,5-a]pyrimidine-3-carboxamide]
9.35 | 9.89 | 8.41 | Nc1nn2cccnc2c1C(=O)Nc1cn(C2CCN(CCCN3CCCC3=O)CC2)nc1-c1cc(Cl)ccc1OC(F)F [Example 146, 2-amino-N-[3-[5-chloro-2-(difluoromethoxy)phenyl]-1-[1-[3-(2-oxopyrrolidin-1-yl)propyl]-4-piperidyl]pyrazol-4-yl]pyrazolo[1,5-a]pyrimidine-3-carboxamide]
9.19 | 10.00 | 8.03 | CN(C)C(=O)CCCN1CCC(n2cc(NC(=O)c3c(N)nn4cccnc34)c(-c3cc(Cl)ccc3OC(F)F)n2)CC1 [Example 148, 2-amino-N-[3-[5-chloro-2-(difluoromethoxy)phenyl]-1-[1-[4-(dimethylamino)-4-oxo-butyl]-4-piperidyl]pyrazol-4-yl]pyrazolo[1,5-a]pyrimidine-3-carboxamide]
9.14 | 9.77 | 7.70 | CC(=O)NCCCN1CCC(n2cc(NC(=O)c3c(N)nn4cccnc34)c(-c3cc(Cl)ccc3OC(F)F)n2)CC1 [Example 150, N-[1-[1-(3-acetamidopropyl)-4-piperidyl]-3-[5-chloro-2-(difluoromethoxy)phenyl]pyrazol-4-yl]-2-amino-pyrazolo[1,5-a]pyrimidine-3-carboxamide]
